Test results published in patent US10385107B2 (INDIANA UNIVERSITY RESEARCH AND TECHNOLOGY CORPORATION, priority 2014, dated 2019).
“Also recorded” adds a separate entry of the source.

Legend:
blood glucose [1] = assay: Insulin tolerance test in C57/Blk mice (MIU-30); type: in vivo; conditions: C57 black mice, through 8 hr
Text: (generating “MIU-30c”). […] In FIG. 1B total blood glucose of MIU 30a and MIU 30c as compared to vehicle is reported as differential area under curve (AUC). […] These in vivo results are consistent with the in vitro analysis.

insulin receptor [2] = target: T1, insulin receptor (Homo sapiens, UniProt P06213); assay: Insulin receptor phosphorylation assay, receptor transfected HEK293 cells; type: cell-based; set-up: expressed in transfected cells; host or cells: HEK293; conditions: incubated in 20% plasma
insulin receptor [3] = target: T1, insulin receptor; assay: Insulin receptor competition binding assay (scintillation proximity); set-up: expressed in transfected cells; plasma membrane fragments; conditions: incubated in 20% plasma/PBS at 37° C.
[4] = Stability of Phe^B1-Insulin Prodrug
blood glucose [5] = assay: Comparative insulin tolerance for insulin prodrug analogs in mice; type: in vivo; conditions: for comparative insulin potency in vivo: mice, administered without pre-incubation
Text: The prodrug derivative MIU-29: [B^1(Y16,L17,Y25)29a: A^1(aF19-dLys(Ac),NLeu)] comprises a 4-amino-phenylalnine substitution at position A19 wherein a dipeptide dLys(Ac),NLeu have been covalently linked at the 4-amino position of the A19 residue. […]
(§1) Acylation of the insulin prodrug analogs was investigated to determine if retention times in vivo could be enhanced. […] (providing time for prodrug conversion) relative to the non-acylated prodrug (see FIG. 2).

[6] = In vitro activity of prodrugs relative to time incubated ex vivo; conditions: 30% ACN/PBS, pH 7.4, 37° C.
Protocol: FIG. 2 is a graph depicting the in vitro activity of the acylated prodrug MIU 42: B^1(Y16,L17,Y25)29a: A^1(dLys(rE-C14),Sar-aF19) (wherein an amino acid of the dipeptide prodrug element is acylated, linked at the gamma position “rE” of a glutamic acid linker) relative to time incubated ex vivo in 30% ACN/PBS at pH 7.4 and 37° C.
as §1

T1 sequence (P06213 28-758 limits assumed): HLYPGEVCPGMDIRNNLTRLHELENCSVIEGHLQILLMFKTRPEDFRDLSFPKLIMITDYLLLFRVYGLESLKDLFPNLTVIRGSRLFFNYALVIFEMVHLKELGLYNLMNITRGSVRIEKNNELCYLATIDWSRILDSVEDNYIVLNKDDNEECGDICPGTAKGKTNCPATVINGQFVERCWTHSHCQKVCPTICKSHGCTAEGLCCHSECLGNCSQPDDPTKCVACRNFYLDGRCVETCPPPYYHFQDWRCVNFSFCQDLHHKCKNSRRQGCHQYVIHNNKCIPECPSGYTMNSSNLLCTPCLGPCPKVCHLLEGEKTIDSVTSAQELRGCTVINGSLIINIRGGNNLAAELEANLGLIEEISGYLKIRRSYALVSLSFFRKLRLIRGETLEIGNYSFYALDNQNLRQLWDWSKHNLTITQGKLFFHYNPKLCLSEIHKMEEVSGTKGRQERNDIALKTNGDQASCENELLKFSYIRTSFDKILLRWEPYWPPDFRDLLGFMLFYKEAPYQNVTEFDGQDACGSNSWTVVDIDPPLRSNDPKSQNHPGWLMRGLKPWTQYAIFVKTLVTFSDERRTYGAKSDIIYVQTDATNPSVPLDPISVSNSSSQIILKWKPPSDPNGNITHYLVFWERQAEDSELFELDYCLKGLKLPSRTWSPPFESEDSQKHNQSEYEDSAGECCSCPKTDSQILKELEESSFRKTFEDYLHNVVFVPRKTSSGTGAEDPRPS
T1 sequence (P06213 763-1382 partner limits assumed): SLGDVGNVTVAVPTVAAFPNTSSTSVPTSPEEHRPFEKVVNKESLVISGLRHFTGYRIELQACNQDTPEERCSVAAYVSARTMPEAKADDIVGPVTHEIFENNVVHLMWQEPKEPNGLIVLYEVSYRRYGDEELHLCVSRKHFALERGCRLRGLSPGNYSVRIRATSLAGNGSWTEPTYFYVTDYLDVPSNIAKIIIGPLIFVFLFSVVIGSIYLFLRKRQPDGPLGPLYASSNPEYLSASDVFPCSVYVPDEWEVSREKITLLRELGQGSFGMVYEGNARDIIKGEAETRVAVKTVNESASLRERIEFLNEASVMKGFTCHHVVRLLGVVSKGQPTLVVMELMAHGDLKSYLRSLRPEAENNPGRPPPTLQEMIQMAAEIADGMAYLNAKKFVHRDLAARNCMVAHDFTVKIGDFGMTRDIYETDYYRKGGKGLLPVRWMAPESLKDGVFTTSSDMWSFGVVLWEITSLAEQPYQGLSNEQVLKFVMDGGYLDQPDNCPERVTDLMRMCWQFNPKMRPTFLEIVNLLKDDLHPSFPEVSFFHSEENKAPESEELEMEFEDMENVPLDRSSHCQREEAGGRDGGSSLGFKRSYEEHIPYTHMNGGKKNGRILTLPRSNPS

## B^1(Y16,L17,Y25)29a: A^1(dLys(Ac),Sar-aF19) [MIU30]
Blood glucose [1]; 90 nmol/kg
  blood glucose AUC vs vehicle (glucose lowering): little change in glucose
Blood glucose [1]; 270 nmol/kg
  blood glucose AUC vs vehicle (glucose lowering): glucose lowering
Insulin receptor [2]; 1 hr
  % Activity of Insulin (phosphorylation): 23.0%
Insulin receptor [2]; 3 hr
  % Activity of Insulin (phosphorylation): 26.8%
Insulin receptor [2]; 6 hr
  % Activity of Insulin (phosphorylation): 32.5%
Insulin receptor [2]; 9 hr
  % Activity of Insulin (phosphorylation): 41.1%
Insulin receptor [2]; […]
  % Activity of Insulin (phosphorylation): 43.2%
Insulin receptor [3]; 0 hr
  % Activity of Insulin (binding): 34.44%
Insulin receptor [3]; 9 hr
  % Activity of Insulin (binding): 100.09%
Insulin receptor [3]; 95 hr
  % Activity of Insulin (binding): 115.42%

## Methyl dLys(C18) [Peptide 8]
[4]
  Cleavage time: > 240 h

## isobutyl dLys(C18) [Peptide 10]
[4]
  Cleavage time: ~150 h

## [B^1(Y16,L17,Y25)29a: A^1(dLys(rE-C14),Sar-aF19)] [MIU 42]
Blood glucose [5]
  comparative insulin potency in vivo: not very potent relative to the non-prodrug parent compound
[6]
  in vitro activity relative to time incubated ex vivo: increases with time incubated ex vivo; also recorded: activity is restored

## [B^1(H5,10 Y16,L17,Y25, K29-C14)28a: A^1(N18,21, aF19NH2)] [MIU-46]
Blood glucose [5]
  comparative insulin potency in vivo: did not exhibit a desired in vivo potency or a basal profile

## [B^1(Y16,L17,Y25)29a: A^1(aF19-dLys(Ac),NLeu)] [MIU-29]
Blood glucose [5]; normal mice, prodrug incubated 24 hours ex vivo before administration
  ability to lower blood glucose compared to parent compound: performed almost identically
